Results on 24 molecules are retold here after ChEMBL document CHEMBL5385901, “Drug repurposing of propafenone to discover novel anti-tumor agents by impairing homologous recombination to delay DNA damage recovery of rare disease conjunctival melanoma” (Eur J Med Chem, 2023).

The term IC50 denotes the concentration that inhibits the measured activity by half. As a reminder, the inhibition is the percentage by which the read-out fell short of the control.

A short description of series [1]: Antiproliferative activity against human CM-AS16 cells assessed as cell growth inhibition incubated for 72 hrs by CCK8 assay. Type of series: functional, cell-based. To be noted: CM-AS16, 72 h. For orientation: Formazan colour is commonly taken as a measure of viable cells.
Series [2] has as its system CRMM-2. The experiment in a line: Antiproliferative activity against human CRMM-2 cells assessed as cell growth inhibition incubated for 72 hrs by CCK8 assay. Type of series: functional, cell-based. Conditions: CRMM-2, 72 h.
Series [3] in a line: Antiproliferative activity against human CM2005.1 cells assessed as cell growth inhibition incubated for 72 hrs by CCK8 assay. Type of series: functional, cell-based. Conditions: CM2005.1, 72 h.
The subject of series [4] is CRMM-1. Briefly: Antiproliferative activity against human CRMM-1 cells assessed as cell growth inhibition incubated for 72 hrs by CCK8 assay. Type of series: functional, cell-based. To be noted: CRMM-1, 72 h.
The nature of series [5]: Antiproliferative activity against human HL7702 cells assessed as cell growth inhibition incubated for 72 hrs by CCK8 assay. Type of series: toxicity, cell-based. Conditions: HL7702 (L02) cells.
The nature of series [6]: Antiproliferative activity against human PIG1 cells assessed as cell growth inhibition incubated for 72 hrs by CCK8 assay. Type of series: toxicity, cell-based.
Series [7] can be described thus: Inhibition of homologous recombination in human CRMM-1 cells at 10 uM incubated for 12 hrs by real-time PCR analysis relative to control. Type of series: functional.

On to `CCCNCCCOc1ccccc1C(=O)CCCc1ccccc1`, for which the IC50 in series [1] is 2.1 µM; in series [2], 3.2 µM; in series [3] it was 2.6 µM; in series [4] it was 2 µM. Further, the IC50 at 72 h in series [5] worked out at 32.9 µM; in series [6], 1.7 µM. Further, the inhibition at 10 µM in series [7] was determined as 71.6%.
In the case of `CCCNCCCOc1cccc2cccc(C(=O)CCCc3ccccc3)c12`, the 50% inhibitory concentration (IC50) was 8.8 µM in series [1], 5.9 µM in series [2], 8.4 µM in series [3] and 9.8 µM in series [4]. Moreover, the IC50 at 72 h in series [5] was determined as 10.2 µM; in series [6], 6.8 µM. In addition, the inhibition at 10 µM in series [7] is 59%.
With `CCCNCC(O)COc1ccccc1CCCc1ccccc1` (centres undefined), the half-inhibitory concentration (IC50) came to 6 µM in series [1], 20.9 µM in series [2], 9.6 µM in series [3] and 9.2 µM in series [4]. For the same molecule, the concentration for half-maximal inhibition (IC50) at 72 h was 19.3 µM in series [5] and 15.7 µM in series [6]. In series [7], the inhibition at 10 µM stood at 57%.
For the molecule `CCC(C)(C)NCCCOc1ccc2ccccc2c1C(=O)CCCc1ccccc1`, the IC50 in series [1] was determined as 3.1 µM; in series [2], 3.7 µM; in series [3], 4.1 µM; in series [4], 4.8 µM. In addition, the half-maximal inhibitory concentration (IC50) at 72 h in series [5] is 10.4 µM; in series [6] it was 5.7 µM. The inhibition at 10 µM in series [7] was determined as 44.6%.
With `O=C(CCCc1ccccc1)c1c(OCCCN2CCCC2)ccc2ccccc12`, the half-inhibitory concentration (IC50) is 11.9 µM in series [1], 8 µM in series [2], 12.8 µM in series [3] and 5.6 µM in series [4]. In addition, the IC50 at 72 h in series [5] turned out to be 22 µM; in series [6], 7.8 µM. The inhibition at 10 µM in series [7] was 71%.
Regarding `CC(C)(C)C(=O)NCCCOc1ccc2ccccc2c1C(=O)CCCc1ccccc1`, the IC50 in series [2] was determined as 29.6 µM; in series [3] it was 35.9 µM; in series [4], 13.1 µM. The IC50 at 72 h in series [5] came out at 39.9 µM; in series [6], 14.2 µM. Moreover, the inhibition at 10 µM in series [7] worked out at 55%.
As to `CCC(=O)NCCCOc1ccc2ccccc2c1C(=O)CCCc1ccccc1`, the IC50 in series [1] is 9 µM; in series [2] it was 9.3 µM; in series [3] it was 37.7 µM; in series [4], 8.2 µM. Besides, the IC50 at 72 h stood at 29.5 µM in series [5] and 19.5 µM in series [6]. Moreover, the inhibition at 10 µM in series [7] turned out to be 35%.
On to `CCCNCCCOc1cc2c(cc1C(=O)CCCc1ccccc1)OCO2`, for which the IC50 in series [1] amounted to 10.8 µM; in series [2], 8.2 µM; in series [3] it was 6.8 µM; in series [4] it was 6.9 µM. Also, the IC50 at 72 h in series [5] came out at 32.7 µM; in series [6] it was 15.5 µM. For the same molecule, the inhibition at 10 µM in series [7] was determined as 43%.
Regarding `CCCNCC(O)COc1ccc(C(=O)CCc2ccccc2)cc1` (centres undefined), the half-inhibitory concentration (IC50) in series [1] was determined as 18.9 µM; in series [2] it was 21 µM; in series [3], 56.2 µM; in series [4], 28.5 µM. Besides, the IC50 at 72 h is 44 µM in series [5] and 26.8 µM in series [6]. For the same molecule, the inhibition at 10 µM in series [7] turned out to be 5.5%.
`CCCOCC(=O)COc1ccccc1C(=O)CCc1ccccc1`: the IC50 in series [1] came to 36.8 µM; in series [2], 28.7 µM; in series [3], 40.9 µM; in series [4], 41.8 µM. In addition, the half-maximal inhibitory concentration (IC50) at 72 h in series [5] came to 73.1 µM; in series [6], 56.7 µM. Moreover, in series [7], the inhibition at 10 µM was found to be 20.6%.
Regarding `CCCNCC(O)COc1cccc(C(=O)CCc2ccccc2)c1` (centres undefined), the IC50 in series [1] is 16.5 µM; in series [2], 22.3 µM; in series [3], 38 µM; in series [4] it was 28.3 µM. The values for the IC50 at 72 h in series [5] and in series [6] were 69.1 µM and 62.4 µM, respectively. In addition, in series [7], the inhibition at 10 µM came to 52.5%.
In the case of `CCCCCCNCCCOc1ccccc1C(=O)CCCc1ccccc1`, the IC50 in series [1] turned out to be 5.9 µM; in series [2] it was 1.6 µM; in series [3], 15.8 µM; in series [4], 6.5 µM. Moreover, the concentration for half-maximal inhibition (IC50) at 72 h in series [5] amounted to 10.6 µM; in series [6] it was 9.2 µM. In addition, the inhibition at 10 µM in series [7] was determined as 57.2%.
On to `O=C(CCCc1ccccc1)c1c(OCCCn2cccc2)ccc2ccccc12`, for which the half-maximal inhibitory concentration (IC50) in series [2] is 50.6 µM; in series [3], 99.2 µM; in series [4], 75.9 µM. The 50% inhibitory concentration (IC50) at 72 h in series [5] amounted to 95.5 µM; in series [6], 75.2 µM.
Turning to `CCCNCC(O)COc1ccccc1C(O)CCc1ccccc1` (centres undefined), the IC50 worked out at 18.7 µM in series [1], 14.9 µM in series [2], 73.3 µM in series [3] and 55.4 µM in series [4]. For the same molecule, the IC50 at 72 h in series [5] was 71.5 µM; in series [6], 89.6 µM. In addition, the inhibition at 10 µM in series [7] was determined as 15.7%.
As for `O=C(CCCc1ccccc1)c1c(OCCCNC2CC2)ccc2ccccc12`, the IC50 in series [1] amounted to 14.2 µM; in series [2], 16.4 µM; in series [3], 10.4 µM; in series [4], 10.3 µM. Also, the IC50 at 72 h was determined as 32.4 µM in series [5] and 8 µM in series [6]. Also, the inhibition at 10 µM in series [7] was 29.3%.
Consider `Cc1cncc(COc2ccc3ccccc3c2C(=O)CCCc2ccccc2)c1`, for which the IC50 in series [2] came out at 38.3 µM; in series [3], 33 µM; in series [4], 21.5 µM. Moreover, the IC50 at 72 h in series [5] was found to be 95.4 µM; in series [6] it was 29.1 µM. The inhibition at 10 µM in series [7] was determined as 47.1%.
As for `CCCNCCCOc1cc2ccccc2cc1C(=O)CCCc1ccccc1`, the IC50 came to 6.8 µM in series [1], 6.7 µM in series [2], 6.6 µM in series [3] and 10.4 µM in series [4]. The IC50 at 72 h in series [5] turned out to be 11.9 µM; in series [6], 13.6 µM. In series [7], the inhibition at 10 µM is 67.1%.
As to `O=C(CCc1ccccc1)c1ccccc1`, the concentration for half-maximal inhibition (IC50) in series [1], in series [2] and in series [4] was > 100 µM in each case.
As to `O=C(CCCc1ccccc1)c1c(OCCCN2CCSC2)ccc2ccccc12`, the IC50 in series [1] was 9.2 µM; in series [2], 6.6 µM; in series [3] it was 11.9 µM; in series [4] it was 10.2 µM. The values for the half-inhibitory concentration (IC50) at 72 h in series [5] and in series [6] were 51.5 µM and 29.7 µM, respectively. Moreover, in series [7], the inhibition at 10 µM was 72.1%.
On to `CCCOCC(O)COc1ccccc1C(=O)CCc1ccccc1` (centres undefined), for which the 50% inhibitory concentration (IC50) came to 13.7 µM in series [1], 28.9 µM in series [2], 53 µM in series [3] and 20.9 µM in series [4]. The values for the IC50 at 72 h in series [5] and in series [6] were 65 µM and 73.8 µM, respectively. The inhibition at 10 µM in series [7] was 20.1%.
With `CN1CCN(CCCOc2ccc3ccccc3c2C(=O)CCCc2ccccc2)CC1`, the IC50 worked out at 5.2 µM in series [1], 4.2 µM in series [2], 5.9 µM in series [3] and 5.6 µM in series [4]. In addition, the half-maximal inhibitory concentration (IC50) at 72 h in series [5] was found to be 10.5 µM; in series [6], 10.4 µM. The inhibition at 10 µM in series [7] was found to be 54.2%.
As for `CCCNCCCOc1ccc2ccccc2c1C(=O)CCCc1ccccc1`, the IC50 stood at 4 µM in series [1], 3.8 µM in series [2], 4.1 µM in series [3] and 3.1 µM in series [4]. In addition, the IC50 at 72 h was 28.8 µM in series [5] and 78.2 µM in series [6]. For the same molecule, the inhibition at 10 µM in series [7] worked out at 75.2%.
With `CCCNCC(O)COc1ccccc1` (centres undefined), the concentration for half-maximal inhibition (IC50) in series [1] and in series [2] was > 100 µM throughout.
For the molecule `CCCNCC(O)COc1ccccc1C(=O)NCc1ccccc1` (centres undefined), the IC50 in series [1] is > 100 µM.
